# Reference: patent US8846914B2, “Compositions to effect neuronal growth” (Neuralstem, Inc., priority 2003, dated 2014)
# Experiments:
# [1] = system: human hippocampal stem cells; experiment: Neuronal identification of mitotic cells (BrdU / TuJ1 co-staining); type: cell-based; settings: BrdU during last forty-eight hours of two-week treatment; FIG. 13
# From the text: FIG. 13 is a bar graph illustrating an example of neuronal identification of the mitotic cells in response to the compound treatment. Mitotic cells were labeled with BrdU during the last forty-eight hours of the two-week treatment with the test compounds. BrdU alone and BrdU together with TuJ1 as co-stained cells were quantified. Results from NSI-106 and LIF treatment are shown as an example. […] The bars represent the mean±SD from each of six wells.
# In FIG. 13, mitotic cells are labeled with BrdU during the last forty-eight hours of a two-week treatment with the test compounds. BrdU alone and BrdU together with TuJ1 as co-stained cells are quantified.
# As described in pending U.S. patent application Ser. No. 10/728,652, leukemia inhibitory factor (LIF), a cytokine growth factor, was selected from among several known neurotrophic factors as a positive control against which tested compounds can be compared. […] This effect is both consistent with the neural stem cell system in which the cells respond appropriately to the positive control by enhanced differentiation and/or mitosis, and achieves the objective of the assay method in which such cellular responses can be measured reproducibly and quantifiably.
# Results from NSI-106 and the positive control, LIF treatment are shown as an example. […] The bars represent the mean±SD from each of six wells.
# [2] = system: Differentiating hippocampal stem cells; experiment: Committed neuronal progenitors (Ki-67 / TuJ1 co-staining); type: cell-based, human; settings: treated for 10 days; FIG. 14
# Method: FIG. 14 is a micrograph illustrating an example of production of committed neuronal progenitors by NSI-106. Differentiating hippocampal stem cells were treated with NSI-106 for 10 days, fixed, and stained for Ki-67 protein as well as TuJ1. Ki-67 protein is an endogenous marker of mitosis.
# FIG. 14 illustrates committed neuronal progenitor production by NSI-106. Differentiating hippocampal stem cells are treated with NSI-106 for 10 days, fixed, and stained for Ki-67 protein to detect dividing cells as well as TuJ1 to detect cells that have differentiated into neurons, Ki-67 protein is an endogenous marker of mitosis.
# [3] = system: dentate gyrus of C57B16 adult mice; experiment: In vivo neurogenesis, BrdU immunostaining of dentate gyrus; design: species or system mouse; settings: for Neurogenesis in the dentate gyrus (BrdU-immunopositive cells): 10 mg/kg orally for ten days, healthy adult mice
# Method: FIG. 9A and FIG. 9B are micrographs illustrating an example of BrdU immunostaining of a mouse dentate gyrus having been administered a vehicle and a compound. Mice were treated daily with various test compounds at 10 mg/kg p.o. (FIG. 9B) or vehicle alone (FIG. 9A) for ten days. The animals were injected daily with BrdU for the first seven days. At the end of the ten-day period, the animals were perfused and their brains sliced for immunostaining with anti-BrdU antibody and analysis.
# FIGS. 10A and 10B are bar graphs illustrating an example of quantification of BrdU-immunopositive cells in the in vivo neurogenesis testing the compounds. Mice were treated with the various test compounds for in vivo neurogenesis in two cohorts. The cells from one dentate gyrus of each mouse in each test group were counted and average BrdU values immunoreactivity are shown. The symbols, * and ** indicate immunoreactivity increases of statistical significant the indicated p values. Seven compounds are especially effective in increasing the neurogenesis in the dentate gyrus of the healthy adult mice, the area known to have continued adult neurogenesis.
# In one embodiment, fifteen of the compounds from Table I above are administered orally to mice at 10 mg/kg for ten days and co-administered bromodeoxyuridine (BrdU) by intraperitoneal injection for the first […] days. […] For example, in FIGS. 9A and 9B, BrdU immunostainings of hippocampal slices from two mice treated with either vehicle alone or NSI-158 are illustrated. In FIGS. 9A and 9B, the mice are treated daily for ten days with vehicle alone (FIG. 9A) or orally with various test compounds at 10 mg/kg (FIG. 9B). The animals are injected daily with BrdU for the first seven days. […]
# Mice were treated with the various test compounds for in vivo neurogenesis in two cohorts as described above. The cells from one dentate gyrus of each mouse in each test group were counted and average BrdU immunoreactivity values are calculated. […]
# [4] = system: human hippocampal stem cells differentiated for a period of 3-4 weeks; experiment: 2° Assay Cell#/Apop (secondary neuroprotection/apoptosis assay); type: cell-based
# From the text: Other potential AD therapeutics progressing in clinical trials, target neurodegeneration in the hopes of reducing the neuronal loss and cognitive decline. Apoptotic death involving caspase pathways and DNA fragmentation has been measured in in vitro and animal models of AD and in Alzheimer's diseased brain tissue. The extent of apoptosis leading to neuronal loss is of continual debate with most agreeing it has some effect, but that other neuronal death pathways definitely play a role (see Behl, 2000; Broe et al., 2001, Roth, 2001). […]
# A number of neurogenic agents inhibit neuronal loss, caspase-3 activity and/or nuclear fragmentation compared to staurosporine vehicle control. These NSI small molecule agents are all effective at in vitro neurogenesis as determined by methods described. […] Instrumentation such as a Molecular Devices fluorescent plate reader or a […] Array Scan II instrument and the like may be used to measure the degeneration and apoptosis.
# Another assay used to determine the ability of a compound to provide neuroprotection is an apoptosis assay. Apoptosis is measured using the activity of an early matter of the programmed cell death pathway, caspase-3. […] Caspase-3 activity is expressed as μM of cleaved substrate per hour. […]
smiles,measurement,setting,value
CCCCNc1c(C2CCN(C(=O)CN(CC(C)C)S(C)(=O)=O)CC2)nc2cnccn12 [NSI-106],BrdU and TuJ1 co-stained mitotic cells,[1],produces mostly co-stained cells
same,Ki-67 and TuJ1 co-stained cells,[2],significant number of cells are co-stained
NC(=O)C1CCCN1C(=O)c1cccnc1NCC1CCCCC1 (stereo not shown) [NSI-158],Neurogenesis in the dentate gyrus (BrdU-immunopositive cells),[3],especially effective at promoting neurogenesis
same,Dividing cells in the dentate gyrus versus vehicle (BrdU immunostaining),"[3]; 10 mg/kg p.o. daily for ten days, FIG. 9A/9B",far greater dividing cells
O=C(NCc1nc2ccccn2c1NCC1CCCO1)Oc1ccccc1 (stereo not shown) [NSI-182],2° Assay Apop,[4],100 ± 27
same,2° Assay Cell#,[4],78 ± 34/
CC(C)CCNc1ncccc1C(=O)N1CCN(Cc2ccccc2)CC1 [NSI-189],Neurogenesis in the dentate gyrus (BrdU-immunopositive cells),[3],especially effective at promoting neurogenesis
